Reference: patent publication US10793568B2, “Hormone receptor modulators for treating metabolic conditions and disorders” (ARDELYX, INC., priority 2016, dated 2020)
Where two headings read alike, the source gives them in different places.

Columns and labels:
[1] = target: ligand binding domain of human FXR (Homo sapiens (Human), UniProt Q96RI1); test: FXR ligand binding assay (LanthaScreen TR-FRET, SRC2-2 peptide recruitment); details: for pEC50: -log EC50, concentration required to produce 50% activation; for Emax: read-out: % Efficacy
Chain of ligand binding domain of human FXR (Q96RI1 262-486): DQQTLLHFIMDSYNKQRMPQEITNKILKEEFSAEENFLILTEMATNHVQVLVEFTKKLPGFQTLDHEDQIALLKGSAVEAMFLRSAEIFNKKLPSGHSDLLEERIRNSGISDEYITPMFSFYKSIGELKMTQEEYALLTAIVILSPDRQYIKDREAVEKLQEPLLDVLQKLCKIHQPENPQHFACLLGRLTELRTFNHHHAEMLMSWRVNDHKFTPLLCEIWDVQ

[2] = target: human Farnesoid X receptor ligand-binding domain/Gal4 DNA binding domain chimera (Homo sapiens (Human), UniProt Q96RI1); test: Cell-based assay of FXR activation (FXR-UAS-bla HEK 293T beta-lactamase reporter); details: cellular FXR beta-lactamase reporter assay; for Emax: HEK-293T, extent of activation relative to GW4064, read-out: % Efficacy; for EC50: FXR-UAS-bla HEK 293T cells, 16 h, pEC50 = -log EC50
Chain of human Farnesoid X receptor ligand-binding domain/Gal4 DNA binding domain chimera (Q96RI1 262-486, change not shown): as the sequence (Q96RI1 262-486) above
Chain of human Farnesoid X receptor ligand-binding domain/Gal4 DNA binding domain chimera (P04386 1-147 partner): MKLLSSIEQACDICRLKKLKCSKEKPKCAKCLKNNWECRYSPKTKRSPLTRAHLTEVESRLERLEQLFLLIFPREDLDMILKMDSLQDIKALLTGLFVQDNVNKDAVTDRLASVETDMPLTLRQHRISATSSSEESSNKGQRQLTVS
Outline: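 HEK 293T cells stably expressing a Gal4-fused human FXR LBD and a UAS-driven beta-lactamase reporter were incubated with serially diluted compounds for 16 h at 37 °C in phenol red-free DMEM with 2% charcoal-stripped FBS. CCF4 FRET read-out: excitation 409 nm, emission 447 nm. pEC50 comes from a 3-parameter logistic fit, and efficacy is given as % of GW4064.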

[3] = extent of activation relative to GW4064

SMILES | pEC50 [1] | Emax [2] [%] | EC50 [2] [nM] | Emax [1] [%] | Emax [1, 3] [%]
O=C(O)c1cc(F)c2nc(N3C[C@@H]4C[C@H](OC(=O)c5c(-c6c(Cl)cccc6Cl)noc5C5CC5)[C@H]3C4)sc2c1 [Compound I-64, 2-[(1R,4S,6S)-6-[5-cyclopropyl-3-(2,6-dichlorophenyl)-1,2-oxazole-4-carbonyloxy]-2-azabicyclo[2.2.1]heptan-2-yl]-4-fluoro-1,3-benzothiazole-6-carboxylic Acid] | >4.5 | 55 | 501 |  | 
O=C(O)c1cc(F)c2nc(N3C[C@H]4C[C@@H]3[C@H](OCc3c(-c5c(Cl)cccc5Cl)noc3C3CC3)C4)sc2c1 [Compound I-65, 2-[(1R,4S,6R)-6-{[5-cyclopropyl-3-(2,6-dichlorophenyl)-1,2-oxazol-4-yl]methoxy}-2-azabicyclo[2.2.1]heptan-2-yl]-4-fluoro-1,3-benzothiazole-6-carboxylic Acid] | 6.9 | 52 | 100 | 45 | 
N#Cc1cc(N2C[C@@H]3C[C@H]2C[C@H]3OCc2c(-c3c(Cl)cccc3Cl)noc2C2CC2)ccc1C(=O)O [Compound I-101, 2-Cyano-4-[(1S,4S,5R)-5-{[5-cyclopropyl-3-(2,6-dichlorophenyl)-1,2-oxazol-4-yl]methoxy}-2-azabicyclo[2.2.1]heptan-2-yl]benzoic Acid] | 9.8 | 113 | 1 |  | 137
N#Cc1cc(C(=O)O)ccc1N1C[C@@H]2C[C@H]1C[C@H]2OCc1c(-c2c(Cl)cccc2Cl)noc1C1CC1 [Compound I-102, 3-cyano-4-[(1S,4S,5R)-5-{[5-cyclopropyl-3-(2,6-dichlorophenyl)-1,2-oxazol-4-yl]methoxy}-2-azabicyclo[2.2.1]heptan-2-yl]benzoic Acid] | 8.6 | 106 | 0.794 |  | 112
O=C(O)c1ccc(N2C[C@@H]3C[C@H]2C[C@H]3OCc2c(-c3c(Cl)cccc3Cl)noc2C2CC2)cc1F [Compound I-103, 4-[(1S,4S,5R)-5-{[5-cyclopropyl-3-(2,6-dichlorophenyl)-1,2-oxazol-4-yl]methoxy}-2-azabicyclo[2.2.1]heptan-2-yl]-2-fluorobenzoic Acid] | 8.7 | 103 | 0.794 |  | 135
O=C(O)c1c(F)cc(N2C[C@@H]3C[C@H]2C[C@H]3OCc2c(-c3c(Cl)cccc3Cl)noc2C2CC2)cc1F [Compound I-104, 4-[(1S,4S,5R)-5-{[5-cyclopropyl-3-(2,6-dichlorophenyl)-1,2-oxazol-4-yl]methoxy}-2-azabicyclo[2.2.1]heptan-2-yl]-2,6-difluorobenzoic Acid] | 9.4 | 104 | 3.16 |  | 156
O=C(O)c1cc(F)c(N2C[C@@H]3C[C@H]2C[C@H]3OCc2c(-c3c(Cl)cccc3Cl)noc2C2CC2)cc1F [Compound I-105, 4-[(1S,4S,5R)-5-{[5-cyclopropyl-3-(2,6-dichlorophenyl)-1,2-oxazol-4-yl]methoxy}-2-azabicyclo[2.2.1]heptan-2-yl]-2,5-difluorobenzoic Acid] | 9.4 | 112 | 1.26 |  | 142
O=C(O)c1ccc(N2C[C@@H]3C[C@H]2C[C@H]3OCc2c(-c3c(Cl)cccc3Cl)noc2C2CC2)c(C(F)(F)F)c1 [Compound I-106, 4-((1S,4S,5R)-5-((5-cyclopropyl-3-(2,6-dichlorophenyl)isoxazol-4-yl)methoxy)-2-azabicyclo[2.2.1]heptan-2-yl)-3-(trifluoromethyl)benzoic acid] | 8.6 | 106 | 0.631 |  | 126
Cc1cc(C(=O)O)ccc1N1C[C@@H]2C[C@H]1C[C@H]2OCc1c(-c2c(Cl)cccc2Cl)noc1C1CC1 [Compound I-107, 4-((1S,4S,5R)-5-((5-cyclopropyl-3-(2,6-dichlorophenyl)isoxazol-4-yl)methoxy)-2-azabicyclo[2.2.1]heptan-2-yl)-3-methylbenzoic acid] | 8.6 | 102 | 1 |  | 122
O=C(O)c1ccc(N2C[C@@H]3C[C@H]2C[C@H]3OCc2c(-c3c(Cl)cccc3Cl)noc2C2CC2)c(C2CC2)c1 [Compound I-108, 3-cyclopropyl-4-((1S,4S,5R)-5-((5-cyclopropyl-3-(2,6-dichlorophenyl)isoxazol-4-yl)methoxy)-2-azabicyclo[2.2.1]heptan-2-yl)benzoic acid] | 9.1 | 101 | 3.98 |  | 117
CCc1cc(C(=O)O)ccc1N1C[C@@H]2C[C@H]1C[C@H]2OCc1c(-c2c(Cl)cccc2Cl)noc1C1CC1 [Compound I-109, 4-((1S,4S,5R)-5-((5-cyclopropyl-3-(2,6-dichlorophenyl)isoxazol-4-yl)methoxy)-2-azabicyclo[2.2.1]heptan-2-yl)-3-ethylbenzoic acid] | 9.4 | 100 | 1.58 |  | 117
O=C(O)c1ccc(N2C[C@@H]3C[C@H]2C[C@H]3OCc2c(-c3c(Cl)cccc3Cl)noc2C2CC2)c(F)c1F [Compound I-110, 4-((1S,4S,5R)-5-((5-cyclopropyl-3-(2,6-dichlorophenyl)isoxazol-4-yl)methoxy)-2-azabicyclo[2.2.1]heptan-2-yl)-2,3-difluorobenzoic acid] | 10 | 111 | 1 |  | 132
Cc1cc(N2C[C@@H]3C[C@H]2C[C@H]3OCc2c(-c3c(Cl)cccc3Cl)noc2C2CC2)ccc1C(=O)O [Compound I-111, 4-((1S,4S,5R)-5-((5-cyclopropyl-3-(2,6-dichlorophenyl)isoxazol-4-yl)methoxy)-2-azabicyclo[2.2.1]heptan-2-yl)-2-methylbenzoic acid] | 9.3 | 100 | 1.26 |  | 132
COc1cc(N2C[C@@H]3C[C@H]2C[C@H]3OCc2c(-c3c(Cl)cccc3Cl)noc2C2CC2)ccc1C(=O)O [Compound I-112, 4-((1S,4S,5R)-5-((5-cyclopropyl-3-(2,6-dichlorophenyl)isoxazol-4-yl)methoxy)-2-azabicyclo[2.2.1]heptan-2-yl)-2-methoxybenzoic acid] | 9.4 | 100 | 5.01 |  | 116
Cc1cccc(Cl)c1-c1noc(C2CC2)c1CO[C@@H]1C[C@@H]2C[C@H]1CN2c1ccc(C(=O)O)cc1F [Compound I-113, 4-[(1S,4S,5R)-5-[[3-(2-chloro-6-methylphenyl)-5-cyclopropyl-1,2-oxazol-4-yl]methoxy]-2-azabicyclo[2.2.1]heptan-2-yl]-3-fluorobenzoic acid] | 8.8 | 101 | 0.794 |  | 126
Cc1cccc(Cl)c1-c1noc(C2CC2)c1CO[C@@H]1C[C@@H]2C[C@H]1CN2c1ccc(C(=O)O)cc1 [Compound I-114, 4-[(1S,4S,5R)-5-{[3-(2-chloro-6-methylphenyl)-5-cyclopropyl-1,2-oxazol-4-yl]methoxy}-2-azabicyclo[2.2.1]heptan-2-yl]-benzoic Acid] |  | 103 | 2.51 |  | 124
Cc1cccc(Cl)c1-c1noc(C2CC2)c1CO[C@@H]1C[C@@H]2C[C@H]1CN2c1ccc(C(=O)O)c(F)c1 [Compound I-115, 4-[(1S,4S,5R)-5-{[3-(2-chloro-6-methylphenyl)-5-cyclopropyl-1,2-oxazol-4-yl]methoxy}-2-azabicyclo[2.2.1]heptan-2-yl]-2-fluorobenzoic Acid] | 9.6 | 108 | 2 |  | 144
Cc1cccc(C)c1-c1noc(C2CC2)c1CO[C@@H]1C[C@@H]2C[C@H]1CN2c1ccc(C(=O)O)cc1F [Compound I-116, 4-[(1S,4S,5R)-5-{[5-cyclopropyl-3-(2,6-dimethylphenyl)-1,2-oxazol-4-yl]methoxy}-2-azabicyclo[2.2.1]heptan-2-yl]-3-fluorobenzoic Acid] | 8.6 | 102 | 3.98 |  | 131
Cc1cccc(C)c1-c1noc(C2CC2)c1CO[C@@H]1C[C@@H]2C[C@H]1CN2c1ccc(C(=O)O)cc1 [Compound I-117, 4-[(1S,4S,5R)-5-{[5-cyclopropyl-3-(2,6-dimethylphenyl)-1,2-oxazol-4-yl]methoxy}-2-azabicyclo[2.2.1]heptan-2-yl]benzoic Acid] | 8.2 | 100 | 7.94 |  | 113
O=C(O)c1ccc(N2C[C@@H]3C[C@H]2C[C@H]3OCc2c(-c3c(F)cccc3Cl)noc2C2CC2)cc1 [Compound I-118, 4-[(1S,4S,5R)-5-{[3-(2-chloro-6-fluorophenyl)-5-cyclopropyl-1,2-oxazol-4-yl]methoxy}-2-azabicyclo[2.2.1]heptan-2-yl]benzoic Acid] | 8.6 | 108 | 7.94 |  | 145
O=C(O)c1ccc(N2C[C@@H]3C[C@H]2C[C@H]3OCc2c(-c3c(F)cccc3Cl)noc2C2CC2)c(F)c1 [Compound I-119, 4-[(1S,4S,5R)-5-{[3-(2-chloro-6-fluorophenyl)-5-cyclopropyl-1,2-oxazol-4-yl]methoxy}-2-azabicyclo[2.2.1]heptan-2-yl]-3-fluorobenzoic Acid] | 8.7 | 104 | 0.631 |  | 145
